Several values for one entry are separate records, joined by “and”; a condition that tells them apart may be missing. Equal values may be shown once.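 All cell lines were grown in 96-well plates and treated with compound for 48 hours. At the GI50, growth is halved. TGI denotes the concentration required for complete inhibition of growth.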
Assays:
Assay in all cases: inhibition of tumour cell growth, NCI panel, 48 h
[1] = test system: OVCAR-4 ovarian
[2] = test system: NCI-H460 lung
[3] = test system: SNB-78 CNS
[4] = test system: SF-295 CNS
[5] = test system: ACHN renal
[6] = test system: UACC-62 melanoma
[7] = test system: HT29 colon
[8] = test system: HCT-15 colon
[9] = test system: DLD-1 colon
[10] = test system: SK-MEL-2 melanoma

Compound | TGI [1] | TGI [2] | TGI [3] | TGI [4] | TGI [5] | TGI [6] | TGI [7] | TGI [8] | TGI [9] | TGI [10] | GI50 [9] | GI50 [2] | GI50 [4] | GI50 [10] | GI50 [6] | GI50 [8] | GI50 [1] | GI50 [5] | GI50 [7]
COc1ccc(C[C@]23CCC(=O)N2CCc2cc(OC)c(O)cc23)cc1O | > 100 µM | > 100 µM | > 100 µM | > 100 µM | > 100 µM | > 100 µM | > 100 µM | > 100 µM | – | – | – | – | – | – | – | – | – | – | –
COc1ccccc1NC(=O)C1=C(C)NC(C)=C(C(=O)Nc2ccccc2OC)C1c1ccccc1Cl | > 100 µM | > 100 µM | – | > 100 µM | > 100 µM | > 100 µM | > 100 µM | > 100 µM | > 100 µM | > 100 µM | – | – | – | – | – | – | – | – | –
CC(=O)[CH-]C(C)=O.CC(=O)[CH-]C(C)=O.[Cl-].[O]=[V] | – | > 100 µM | – | 44.8 µM | – | 59.1 µM | – | > 100 µM | > 100 µM | 77.1 µM | 34.6 µM | 46.2 µM | 12.1 µM | 26.8 µM | 20 µM | 36.8 µM | – | – | –
CS(=O)(=O)NNS(=O)(=O)c1ccc(F)cc1 | > 100 µM | > 100 µM | – | > 100 µM | > 100 µM | > 100 µM | > 100 µM | > 100 µM | > 100 µM | > 100 µM | – | – | – | – | – | – | – | – | –
CO/C=C(\Br)c1ccc2c(c1)OCO2 | > 100 µM | – | > 100 µM | > 100 µM | > 100 µM | > 100 µM | – | – | – | > 100 µM | – | – | – | – | – | – | – | – | –
COc1cc2c(/C=C3/C(=O)Nc4ccc(O)cc43)c(Cl)n(Cc3cc(OC)c(OC)c(OC)c3)c2cc1C | > 100 µM | > 32.7 µM | – | 5.67 µM | > 100 µM | 8.56 µM | > 55.9 µM | > 34.1 µM | – | 13.7 µM | – | 1.86 µM | 0.795 µM | 1.93 µM | 1.58 µM | 1.81 µM | 4.03 µM | 3.43 µM | 1.71 µM
CC[C@]12C=CCN3CC[C@@]4(c5ccc(OC)cc5N(C)[C@H]4[C@@](O)(C(=O)OC)[C@@H]1OC(=O)CCC(=O)O[C@H]1CC[C@H]4[C@@H]5CC[C@H]6CC(=O)CC[C@]6(C)[C@H]5CC[C@]14C)[C@@H]32 | > 100 µM | 10.6 µM | – | > 100 µM | > 100 µM | > 100 µM | 6.06 µM | > 100 µM | – | 6.18 µM | – | 2.76 µM | 2.02 µM | 2.49 µM | 3.25 µM | 2.44 µM | 2.58 µM | 3.01 µM | 2.13 µM
COc1ccc2nc3c(cc2c1)C(=O)CC(c1ccccc1)C3 (stereo not drawn) | > 100 µM | > 100 µM | – | 11 µM | > 100 µM | > 100 µM | > 100 µM | > 100 µM | – | > 100 µM | – | 1.44 µM | 0.905 µM | 0.771 µM | 0.601 µM | 2.19 µM | > 100 µM | 0.853 µM | 0.439 µM
O=S1(=O)c2cc(S(=O)(=O)n3ccnc3)ccc2NC2=NCCCN21 | > 100 µM | – | – | > 100 µM | > 100 µM | > 100 µM | 46.3 µM | – | > 100 µM | – | – | – | – | – | – | – | – | – | –
O=C1OC(c2ccc(Cl)cc2)=N/C1=C\c1ccccc1 | > 100 µM | > 100 µM | – | > 100 µM | > 100 µM | > 100 µM | > 100 µM | > 100 µM | – | > 100 µM | – | – | – | – | – | – | – | – | –
CC1(C)N=c2cc3c(cc2N1c1ccc(Cl)cc1)=Nc1ccccc1N3c1ccc(Cl)cc1 | > 100 µM | > 100 µM | – | 28.5 µM | > 100 µM | > 100 µM | > 100 µM | > 100 µM | – | > 100 µM | – | 4.78 µM | 2.08 µM | 3.9 µM | 7.18 µM | 4.26 µM | 4.33 µM | 3.53 µM | 7.85 µM
CN(/N=C/c1ccccc1O)c1ccc2ccccc2n1 | 67.7 µM | 55 µM | – | 30.4 µM | 66.6 µM | > 100 µM | 90.1 µM | > 100 µM | – | > 100 µM | – | – | – | – | – | – | – | – | –
S=C1SCN(Cc2ccccc2)CN1Cc1ccccc1 | 27.6 µM | > 100 µM | – | > 90 µM | 28.2 µM | 16.9 µM | 15.1 µM | 17.1 µM | – | 25.3 µM | – | 31 µM | 24.4 µM | 7.53 µM | 5.05 µM | 4.13 µM | 9.43 µM | 14.8 µM | 3.89 µM
CC(=O)NCc1c(C(N)=O)ncn1Cc1ccccc1 | > 100 µM | > 100 µM | > 100 µM | > 100 µM | > 100 µM | > 100 µM | > 100 µM | > 100 µM | – | – | – | – | – | – | – | – | – | – | –
CC(=O)Nc1ccc(OC(C)=O)cc1 | > 91.7 µM | 16.9 µM | – | 12.4 µM | 76 µM | 12.7 µM | 0.776 µM | 16.6 µM | – | 8.54 µM | – | < 0.01 µM | < 0.01 µM | < 0.01 µM | < 0.01 µM | < 0.01 µM | < 0.01 µM | < 0.01 µM | < 0.01 µM
Cc1ccc2[nH]c(C(=O)NN3C(=O)C(C)SC34CCC(C)CC4)c(-c3ccccc3)c2c1 (stereo not drawn) | 34.7 µM | 43.9 µM | – | 32.9 µM | 44.2 µM | 25.6 µM | 29.3 µM | 53.1 µM | – | 36.7 µM | – | 15.7 µM | 14.3 µM | 17.8 µM | 11.8 µM | 19.4 µM | 14.8 µM | 19.9 µM | 13.1 µM
O=C(Nc1cn[nH]c1-c1nc2ccc(CN3CCOCC3)cc2[nH]1)NC1CC1 | 12.4 µM and > 10 µM | 10.5 µM and > 10 µM | – | 1.5 µM and 4.67 µM | 17.7 µM and > 10 µM | 3.5 µM and > 10 µM | 4.71 µM and > 10 µM | 25.6 µM and > 10 µM | – | 3.94 µM and > 10 µM | – | 1.78 µM and 7.25 µM | 0.195 µM and 1.09 µM | 1.35 µM and > 10 µM | 1.37 µM and 3.81 µM | 4.52 µM and > 10 µM | 1.04 µM and > 10 µM | 2.47 µM and 5.7 µM | 0.272 µM and 2.22 µM
O=C1c2ccccc2C(=O)c2c1oc1c2c(=O)[nH]c2ccc(Cl)cc21 | 0.443 µM | 0.489 µM | – | 2.29 µM | 0.577 µM | 1.15 µM | 12.9 µM | 0.512 µM | – | 5.18 µM | – | 0.22 µM | 0.637 µM | 1.75 µM | 0.285 µM | 0.208 µM | 0.165 µM | 0.203 µM | 3.7 µM

From PubChem BioAssay (NCI)
